The source of these data is ChEMBL document CHEMBL1909046, “DrugMatrix in vitro pharmacology data”.

Molecules are shown by their SMILES.

Test [1] has as its target T1, Alpha-2A adrenergic receptor (Homo sapiens, UniProt P08913). Note: in other assays of this panel Not Active means under 50% inhibition at 10 µM.
T1 sequence (P08913 whole entry): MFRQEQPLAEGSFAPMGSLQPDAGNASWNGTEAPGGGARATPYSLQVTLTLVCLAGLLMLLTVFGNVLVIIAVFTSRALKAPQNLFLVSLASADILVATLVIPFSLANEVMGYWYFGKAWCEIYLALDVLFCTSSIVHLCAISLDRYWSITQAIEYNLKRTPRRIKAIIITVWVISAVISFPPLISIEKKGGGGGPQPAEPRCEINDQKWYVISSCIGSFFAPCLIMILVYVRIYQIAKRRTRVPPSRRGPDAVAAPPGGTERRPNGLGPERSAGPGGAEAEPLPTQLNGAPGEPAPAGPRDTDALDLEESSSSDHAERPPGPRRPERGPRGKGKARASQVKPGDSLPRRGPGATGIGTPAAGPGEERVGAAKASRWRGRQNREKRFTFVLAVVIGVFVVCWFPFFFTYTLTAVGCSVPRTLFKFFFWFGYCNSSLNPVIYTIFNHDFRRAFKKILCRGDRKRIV
The format is cell membranes, Sf9, Membrane.

For test [2], the target named is Beta-3 adrenergic receptor (Homo sapiens, UniProt P13945). Description: DRUGMATRIX: Adrenergic beta3 radioligand binding (ligand: [125I] Cyanopindolol). The format is cell membranes, HEK293, Membrane. The settings on record: Not Active = under 50% inhibition at 10 µM.
The target in test [3] is T2, Type-2 angiotensin II receptor (Homo sapiens, UniProt P50052). Note: in other assays of this panel Not Active means under 50% inhibition at 10 µM.
T2 sequence (P50052 whole entry): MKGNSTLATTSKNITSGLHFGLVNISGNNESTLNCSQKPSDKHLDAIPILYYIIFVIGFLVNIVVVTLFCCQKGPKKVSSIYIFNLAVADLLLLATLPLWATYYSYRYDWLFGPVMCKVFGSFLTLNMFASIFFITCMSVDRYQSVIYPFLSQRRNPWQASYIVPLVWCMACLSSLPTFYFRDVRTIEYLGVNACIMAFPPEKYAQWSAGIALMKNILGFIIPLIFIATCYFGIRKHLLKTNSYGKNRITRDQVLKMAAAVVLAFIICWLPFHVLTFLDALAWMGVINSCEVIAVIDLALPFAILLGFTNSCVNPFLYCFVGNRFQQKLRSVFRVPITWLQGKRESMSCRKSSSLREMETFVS
The format is cell-based. The settings on record: cho-k1.

A short description of test [4]: DRUGMATRIX: GABAA, Flunitrazepam, Central radioligand binding (ligand: [3H] Flunitrazepam). The format is cell membranes, Rattus norvegicus, Wistar, Brain, Membrane. The settings on record: Not Active = under 50% inhibition at 10 µM.
The nature of test [5]: DRUGMATRIX: Phosphodiesterase PDE3 enzyme inhibition (substrate: [3H]cAMP + cAMP). The format is tissue-based, Homo sapiens. The settings on record: platelet, Not Active = under 50% inhibition at 10 µM.
For test [6], the target named is T3, Receptor-type tyrosine-protein phosphatase C (Homo sapiens, UniProt P08575).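 Note: inhibition of CD45 enzyme activity measured using DiFMUP as substrate; in other assays of this panel Not Active means under 50% inhibition at 10 µM.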
T3 sequence (P08575 whole entry): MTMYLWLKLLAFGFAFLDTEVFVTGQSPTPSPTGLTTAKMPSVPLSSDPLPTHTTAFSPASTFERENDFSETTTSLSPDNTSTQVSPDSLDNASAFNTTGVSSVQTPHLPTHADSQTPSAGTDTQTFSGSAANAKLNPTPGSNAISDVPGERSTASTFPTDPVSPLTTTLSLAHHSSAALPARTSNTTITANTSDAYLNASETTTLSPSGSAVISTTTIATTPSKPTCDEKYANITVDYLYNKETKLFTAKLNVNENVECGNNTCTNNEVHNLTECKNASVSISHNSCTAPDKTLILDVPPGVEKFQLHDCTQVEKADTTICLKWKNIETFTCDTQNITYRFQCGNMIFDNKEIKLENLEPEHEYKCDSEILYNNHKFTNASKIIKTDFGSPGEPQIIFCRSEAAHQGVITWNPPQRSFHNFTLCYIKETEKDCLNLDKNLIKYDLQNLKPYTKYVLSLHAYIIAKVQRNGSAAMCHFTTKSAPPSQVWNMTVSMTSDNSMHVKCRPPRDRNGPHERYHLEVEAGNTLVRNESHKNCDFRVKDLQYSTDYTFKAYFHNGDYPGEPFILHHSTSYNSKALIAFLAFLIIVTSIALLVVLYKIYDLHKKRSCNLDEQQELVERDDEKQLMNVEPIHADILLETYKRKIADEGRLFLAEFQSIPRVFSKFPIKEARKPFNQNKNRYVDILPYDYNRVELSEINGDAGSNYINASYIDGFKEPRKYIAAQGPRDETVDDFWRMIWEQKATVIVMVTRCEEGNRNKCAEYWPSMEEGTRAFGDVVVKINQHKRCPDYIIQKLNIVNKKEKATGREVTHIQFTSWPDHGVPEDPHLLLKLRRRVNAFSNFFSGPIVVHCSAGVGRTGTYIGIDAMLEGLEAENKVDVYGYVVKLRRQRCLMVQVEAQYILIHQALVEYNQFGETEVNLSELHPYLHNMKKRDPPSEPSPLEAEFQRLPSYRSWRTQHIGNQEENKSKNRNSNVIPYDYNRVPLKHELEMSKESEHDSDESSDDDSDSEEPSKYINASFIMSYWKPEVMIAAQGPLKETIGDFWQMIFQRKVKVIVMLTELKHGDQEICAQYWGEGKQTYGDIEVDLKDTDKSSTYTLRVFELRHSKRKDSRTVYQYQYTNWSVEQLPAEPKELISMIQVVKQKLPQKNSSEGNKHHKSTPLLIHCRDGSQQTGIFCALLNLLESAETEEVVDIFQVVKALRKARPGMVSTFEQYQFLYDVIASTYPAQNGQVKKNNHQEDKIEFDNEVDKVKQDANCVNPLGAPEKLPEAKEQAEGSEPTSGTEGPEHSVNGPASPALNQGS
Further details: species or system Escherichia coli.

For orientation: IC50 means the concentration needed to halve the response being measured. As a reminder, the Ki is the equilibrium dissociation constant of an inhibitor or competing ligand from its target.

Chain of Beta-3 adrenergic receptor (P13945 whole entry): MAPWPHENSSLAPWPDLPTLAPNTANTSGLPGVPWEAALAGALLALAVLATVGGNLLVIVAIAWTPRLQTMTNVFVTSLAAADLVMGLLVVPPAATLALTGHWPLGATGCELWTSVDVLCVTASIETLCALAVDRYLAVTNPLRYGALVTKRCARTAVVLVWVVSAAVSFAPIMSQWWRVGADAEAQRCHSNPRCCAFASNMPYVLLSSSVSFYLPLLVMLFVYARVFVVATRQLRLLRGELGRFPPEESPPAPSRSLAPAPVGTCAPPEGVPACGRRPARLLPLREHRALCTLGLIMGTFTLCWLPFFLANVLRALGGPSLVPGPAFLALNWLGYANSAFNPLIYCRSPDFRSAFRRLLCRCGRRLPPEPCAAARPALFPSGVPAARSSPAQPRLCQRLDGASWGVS

For the compound `CCC[C@@H]1C[C@@H](C(=O)N[C@@H]([C@H]2O[C@H](SC)[C@H](O)[C@@H](O)[C@H]2O)[C@H](C)Cl)N(C)C1` [CLINDAMYCIN], the concentration for half-maximal inhibition (IC50) result in test [1] (sf9), in test [2] (hek293), in test [3], in test [4], in test [5] and in test [6] was “Not Active” in each case. The Ki result in test [4] and in test [5] was “Not Active” each time.
As for `O=C(O)c1cc(=O)c2c(OCC(O)COc3cccc4oc(C(=O)O)cc(=O)c34)cccc2o1` [CROMOLYN], the concentration for half-maximal inhibition (IC50) result in test [1] (sf9), in test [2] (hek293), in test [3], in test [4], in test [5] and in test [6] was “Not Active” in each case. The inhibition constant (Ki) entry in test [4] and in test [5] was “Not Active” throughout.
In the case of `O=P1(N(CCCl)CCCl)NCCCO1` (stereo unspecified) [CYCLOPHOSPHAMIDE ANHYDROUS], the IC50 result in test [1] (sf9), in test [2] (hek293), in test [3], in test [4], in test [5] and in test [6] was “Not Active” each time. In addition, the inhibition constant Ki entry in test [4] and in test [5] was “Not Active” each time.
As to `CC(=O)O[C@]1(C(C)=O)CC[C@H]2[C@@H]3C=C(Cl)C4=CC(=O)[C@@H]5C[C@@H]5[C@]4(C)[C@H]3CC[C@@]21C` [CYPROTERONE ACETATE], the IC50 result in test [1] (sf9), in test [2] (hek293), in test [3], in test [4], in test [5] and in test [6] was “Not Active” in each case. Also, the Ki result in test [4] and in test [5] was “Not Active” throughout.
With `Nc1nc(N)nc(NC2CC2)n1` [CYROMAZINE], the half-maximal inhibitory concentration (IC50) result in test [1] (sf9), in test [2] (hek293), in test [3], in test [4], in test [5] and in test [6] was “Not Active” each time. The Ki result in test [4] and in test [5] was “Not Active” throughout.
Consider `C#C[C@]1(O)CC[C@H]2[C@@H]3CCC4=Cc5oncc5C[C@]4(C)[C@H]3CC[C@@]21C` [DANAZOL], for which the IC50 in test [1] (read-out: IC50) was 18.3 µM; in test [2] (read-out: IC50), 17 µM; in test [3], “Not Active”; in test [4] (read-out: IC50), 54.3 µM; in test [5] (read-out: IC50), 2.54 µM; in test [6] it was “Not Active”. Also, the Ki in test [1] (read-out: Ki) was found to be 6.87 µM; in test [2] (read-out: Ki), 12.8 µM; in test [4] (read-out: Ki) it was 44.3 µM.
With `CCN[C@@H](C)Cc1cccc(C(F)(F)F)c1` [DEXFENFLURAMINE], the IC50 result in test [1] (sf9), in test [2] (hek293), in test [3], in test [4], in test [5] and in test [6] was “Not Active” each time. Besides, the inhibition constant (Ki) entry in test [4] and in test [5] was “Not Active” in each case.
As for `C[C@H](C(=O)O)c1cccc(C(=O)c2ccccc2)c1` [DEXKETOPROFEN], the IC50 entry in test [1] (sf9), in test [2] (hek293), in test [3], in test [4], in test [5] and in test [6] was “Not Active” each time. Moreover, the Ki entry in test [4] and in test [5] was “Not Active” each time.
Take `CN1C(=O)CN=C(c2ccccc2)c2cc(Cl)ccc21` [DIAZEPAM]: the IC50 entry in test [1] (sf9) is “Not Active”; in test [2] (hek293) it was “Not Active”; in test [3], “Not Active”; in test [4] (read-out: IC50) it was 0.0288 µM; in test [5], “Not Active”; in test [6], “Not Active”. Further, the inhibition constant (Ki) in test [4] (read-out: Ki) was 0.0235 µM; in test [5], “Not Active”.
With `Cc1c(N(C)CS(=O)(=O)[O-])c(=O)n(-c2ccccc2)n1C.[Na+]` [DIPYRONE SODIUM], the IC50 entry in test [1] (sf9), in test [2] (hek293), in test [3], in test [4], in test [5] and in test [6] was “Not Active” throughout. For the same compound, the Ki result in test [4] and in test [5] was “Not Active” throughout.
Consider `CC(CCc1ccc(O)cc1)NCCc1ccc(O)c(O)c1` (stereo unspecified) [DOBUTAMINE], for which the concentration for half-maximal inhibition (IC50) result in test [1] (sf9), in test [2] (hek293), in test [3], in test [4], in test [5] and in test [6] was “Not Active” throughout. Besides, the inhibition constant Ki entry in test [4] and in test [5] was “Not Active” throughout.
`CCn1cc(C(=O)O)c(=O)c2cc(F)c(N3CCNCC3)nc21` [ENOXACIN]: the half-inhibitory concentration (IC50) result in test [1] (sf9), in test [2] (hek293), in test [3], in test [4], in test [5] and in test [6] was “Not Active” in each case. The inhibitory constant (Ki) entry in test [4] and in test [5] was “Not Active” throughout.
With `CCC(=O)O[C@H]1[C@H](O[C@@H]2[C@@H](C)[C@H](O[C@H]3C[C@@](C)(OC)[C@@H](O)[C@H](C)O3)[C@@H](C)C(=O)O[C@H](CC)[C@@](C)(O)[C@H](O)[C@@H](C)C(=O)[C@H](C)C[C@@]2(C)O)O[C@H](C)C[C@@H]1N(C)C` [ERYTHROMYCIN PROPIONATE], the 50% inhibitory concentration (IC50) entry in test [1] (sf9), in test [2] (hek293), in test [3], in test [4], in test [5] and in test [6] was “Not Active” throughout. Further, the Ki result in test [4] and in test [5] was “Not Active” each time.
Regarding `C=C(CC)C(=O)c1ccc(OCC(=O)O)c(Cl)c1Cl` [ETHACRYNIC ACID], the IC50 entry in test [1] (sf9), in test [2] (hek293), in test [3], in test [4], in test [5] and in test [6] was “Not Active” in each case. The inhibition constant (Ki) result in test [4] and in test [5] was “Not Active” each time.
Turning to `C#C[C@]1(O)CC[C@H]2[C@@H]3CCc4cc(O)ccc4[C@H]3CC[C@@]21C` [ETHINYL ESTRADIOL], the IC50 entry in test [1] (sf9), in test [2] (hek293), in test [3], in test [4], in test [5] and in test [6] was “Not Active” throughout. The Ki entry in test [4] and in test [5] was “Not Active” throughout.
